Data published in PubChem BioAssay (NCI).
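1) Cells in 96-well plates. 2) Compound, 48 h, 5 concentrations. 3) Linear interpolation between surrounding doses. 4) Unreached endpoint = highest concentration. TGI is the concentration that stops growth completely.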

What was measured:
Test in all cases: NCI-60 cell line screen, 48 h
786-0 renal = test system: 786-0 renal
A498 renal = test system: A498 renal
A549 NSCLC = test system: A549 NSCLC
ACHN renal = test system: ACHN renal
BT-549 breast = test system: BT-549 breast
CAKI-1 renal = test system: CAKI-1 renal
CCRF-CEM leukemia = test system: CCRF-CEM leukemia
COLO 205 colon = test system: COLO 205 colon
EKVX NSCLC = test system: EKVX NSCLC
HCC-2998 colon = test system: HCC-2998 colon
HCT-116 colon = test system: HCT-116 colon
HCT-15 colon = test system: HCT-15 colon
HOP-62 NSCLC = test system: HOP-62 NSCLC
HOP-92 NSCLC = test system: HOP-92 NSCLC
HS 578T breast = test system: HS 578T breast
HT29 colon = test system: HT29 colon
IGROV1 ovarian = test system: IGROV1 ovarian
K-562 leukemia = test system: K-562 leukemia
KM12 colon = test system: KM12 colon
LOX IMVI melanoma = test system: LOX IMVI melanoma
M14 melanoma = test system: M14 melanoma
MALME-3M melanoma = test system: MALME-3M melanoma
MCF7 breast = test system: MCF7 breast
MDA-MB-231 breast = test system: MDA-MB-231 breast
MDA-MB-435 = test system: MDA-MB-435
MDA-N = test system: MDA-N
MOLT-4 leukemia = test system: MOLT-4 leukemia
NCI-H226 lung = test system: NCI-H226 lung
NCI-H23 lung = test system: NCI-H23 lung
NCI-H460 lung = test system: NCI-H460 lung
NCI-H522 lung = test system: NCI-H522 lung
NCI/ADR-RES ovarian = test system: NCI/ADR-RES ovarian
OVCAR-3 ovarian = test system: OVCAR-3 ovarian
OVCAR-4 ovarian = test system: OVCAR-4 ovarian
OVCAR-5 ovarian = test system: OVCAR-5 ovarian
OVCAR-8 ovarian = test system: OVCAR-8 ovarian
PC-3 prostate = test system: PC-3 prostate
RPMI-8226 leukemia = test system: RPMI-8226 leukemia
RXF 393 renal = test system: RXF 393 renal
SF-268 CNS = test system: SF-268 CNS
SF-295 CNS = test system: SF-295 CNS
SF-539 CNS = test system: SF-539 CNS
SK-MEL-2 melanoma = test system: SK-MEL-2 melanoma
SK-MEL-5 melanoma = test system: SK-MEL-5 melanoma
SK-OV-3 ovarian = test system: SK-OV-3 ovarian
SN12C renal = test system: SN12C renal
SNB-19 CNS = test system: SNB-19 CNS
SR leukemia = test system: SR leukemia
SW-620 colon = test system: SW-620 colon
T-47D breast = test system: T-47D breast
TK-10 renal = test system: TK-10 renal
U251 CNS = test system: U251 CNS
UACC-257 melanoma = test system: UACC-257 melanoma
UACC-62 melanoma = test system: UACC-62 melanoma
UO-31 renal = test system: UO-31 renal
DU-145 prostate = test system: DU-145 prostate
SK-MEL-28 melanoma = test system: SK-MEL-28 melanoma
SNB-75 CNS = test system: SNB-75 CNS
HL-60(TB) leukemia = test system: HL-60(TB) leukemia

Compound: CCc1n[nH]c(=O)n1NC(=O)CCCC(=O)O
- TGI (786-0 renal): > 100 µM
- TGI (A498 renal): > 100 µM
- TGI (A549 NSCLC): > 100 µM
- TGI (ACHN renal): > 100 µM
- TGI (BT-549 breast): > 100 µM
- TGI (CAKI-1 renal): > 100 µM
- TGI (CCRF-CEM leukemia): > 100 µM
- TGI (COLO 205 colon): > 100 µM
- TGI (EKVX NSCLC): > 100 µM
- TGI (HCC-2998 colon): > 100 µM
- TGI (HCT-116 colon): > 100 µM
- TGI (HCT-15 colon): > 100 µM
- TGI (HOP-62 NSCLC): > 100 µM
- TGI (HOP-92 NSCLC): > 100 µM
- TGI (HS 578T breast): > 100 µM
- TGI (HT29 colon): > 100 µM
- TGI (IGROV1 ovarian): > 100 µM
- TGI (K-562 leukemia): > 100 µM
- TGI (KM12 colon): > 100 µM
- TGI (LOX IMVI melanoma): > 100 µM
- TGI (M14 melanoma): > 100 µM
- TGI (MALME-3M melanoma): > 100 µM
- TGI (MCF7 breast): > 100 µM
- TGI (MDA-MB-231 breast): > 100 µM
- TGI (MDA-MB-435): > 100 µM
- TGI (MDA-N): > 100 µM
- TGI (MOLT-4 leukemia): > 100 µM
- TGI (NCI-H226 lung): > 100 µM
- TGI (NCI-H23 lung): > 100 µM
- TGI (NCI-H460 lung): > 100 µM
- TGI (NCI-H522 lung): > 100 µM
- TGI (NCI/ADR-RES ovarian): > 100 µM
- TGI (OVCAR-3 ovarian): > 100 µM
- TGI (OVCAR-4 ovarian): > 100 µM
- TGI (OVCAR-5 ovarian): > 100 µM
- TGI (OVCAR-8 ovarian): > 100 µM
- TGI (PC-3 prostate): > 100 µM
- TGI (RPMI-8226 leukemia): > 100 µM
- TGI (RXF 393 renal): > 100 µM
- TGI (SF-268 CNS): > 100 µM
- TGI (SF-295 CNS): > 100 µM
- TGI (SF-539 CNS): > 100 µM
- TGI (SK-MEL-2 melanoma): > 100 µM
- TGI (SK-MEL-5 melanoma): > 100 µM
- TGI (SK-OV-3 ovarian): > 100 µM
- TGI (SN12C renal): > 100 µM
- TGI (SNB-19 CNS): > 100 µM
- TGI (SR leukemia): > 100 µM
- TGI (SW-620 colon): > 100 µM
- TGI (T-47D breast): > 100 µM
- TGI (TK-10 renal): > 100 µM
- TGI (U251 CNS): > 100 µM
- TGI (UACC-257 melanoma): > 100 µM
- TGI (UACC-62 melanoma): > 100 µM
- TGI (UO-31 renal): > 100 µM

Compound: O=[N+]([O-])/C(C(Cl)=C(Cl)Cl)=C(\Nc1cccc2ccccc12)Sc1ccccc1
- TGI (786-0 renal): 38 µM
- TGI (A498 renal): 23.5 µM
- TGI (A549 NSCLC): 71.6 µM
- TGI (ACHN renal): 28.1 µM
- TGI (BT-549 breast): 35.4 µM
- TGI (CAKI-1 renal): 29.1 µM
- TGI (CCRF-CEM leukemia): > 100 µM
- TGI (COLO 205 colon): 28.7 µM
- TGI (DU-145 prostate): 32 µM
- TGI (EKVX NSCLC): 42.2 µM
- TGI (HCC-2998 colon): 45.2 µM
- TGI (HCT-116 colon): 56.3 µM
- TGI (HCT-15 colon): 33.1 µM
- TGI (HOP-62 NSCLC): 50.5 µM
- TGI (HS 578T breast): 27.2 µM
- TGI (HT29 colon): > 100 µM
- TGI (K-562 leukemia): > 100 µM
- TGI (KM12 colon): 32 µM
- TGI (M14 melanoma): > 100 µM
- TGI (MALME-3M melanoma): 31.3 µM
- TGI (MCF7 breast): 28 µM
- TGI (MDA-MB-231 breast): 23.4 µM
- TGI (MDA-MB-435): 33.4 µM
- TGI (MDA-N): 81 µM
- TGI (MOLT-4 leukemia): > 100 µM
- TGI (NCI-H226 lung): 40.4 µM
- TGI (NCI-H23 lung): 31.6 µM
- TGI (NCI-H460 lung): > 100 µM
- TGI (NCI/ADR-RES ovarian): 31 µM
- TGI (OVCAR-3 ovarian): 21.8 µM
- TGI (OVCAR-4 ovarian): 35.7 µM
- TGI (OVCAR-5 ovarian): 82.1 µM
- TGI (OVCAR-8 ovarian): 28.6 µM
- TGI (PC-3 prostate): 27.4 µM
- TGI (RPMI-8226 leukemia): > 100 µM
- TGI (RXF 393 renal): 26.9 µM
- TGI (SF-268 CNS): 26 µM
- TGI (SF-295 CNS): 37.1 µM
- TGI (SF-539 CNS): 37.4 µM
- TGI (SK-MEL-2 melanoma): 30.6 µM
- TGI (SK-MEL-28 melanoma): 34 µM
- TGI (SK-OV-3 ovarian): > 100 µM
- TGI (SN12C renal): 69.3 µM
- TGI (SNB-19 CNS): 40 µM
- TGI (SNB-75 CNS): 43.4 µM
- TGI (SW-620 colon): 24.9 µM
- TGI (T-47D breast): 44.8 µM
- TGI (U251 CNS): 23.4 µM
- TGI (UACC-257 melanoma): 42.3 µM
- TGI (UACC-62 melanoma): 24.1 µM
- TGI (UO-31 renal): 38.7 µM

Compound: Cc1cc(C)c2cc(N)c(Cl)nc2n1
- TGI (786-0 renal): > 100 µM
- TGI (A549 NSCLC): > 100 µM
- TGI (ACHN renal): > 100 µM
- TGI (BT-549 breast): > 100 µM
- TGI (CAKI-1 renal): > 100 µM
- TGI (CCRF-CEM leukemia): > 100 µM
- TGI (COLO 205 colon): > 100 µM
- TGI (DU-145 prostate): > 100 µM
- TGI (EKVX NSCLC): > 100 µM
- TGI (HCT-116 colon): > 100 µM
- TGI (HCT-15 colon): > 100 µM
- TGI (HL-60(TB) leukemia): > 100 µM
- TGI (HOP-92 NSCLC): > 100 µM
- TGI (HS 578T breast): > 100 µM
- TGI (HT29 colon): > 100 µM
- TGI (IGROV1 ovarian): > 100 µM
- TGI (KM12 colon): > 100 µM
- TGI (M14 melanoma): > 100 µM
- TGI (MALME-3M melanoma): > 100 µM
- TGI (MCF7 breast): > 100 µM
- TGI (MDA-MB-231 breast): > 100 µM
- TGI (MDA-MB-435): > 100 µM
- TGI (MDA-N): > 100 µM
- TGI (NCI-H226 lung): > 100 µM
- TGI (NCI-H23 lung): > 100 µM
- TGI (NCI-H460 lung): > 100 µM
- TGI (NCI-H522 lung): > 100 µM
- TGI (NCI/ADR-RES ovarian): > 100 µM
- TGI (OVCAR-5 ovarian): > 100 µM
- TGI (OVCAR-8 ovarian): > 100 µM
- TGI (PC-3 prostate): > 100 µM
- TGI (RPMI-8226 leukemia): > 100 µM
- TGI (RXF 393 renal): > 100 µM
- TGI (SF-268 CNS): > 100 µM
- TGI (SF-295 CNS): > 100 µM
- TGI (SF-539 CNS): > 100 µM
- TGI (SK-MEL-2 melanoma): > 100 µM
- TGI (SK-MEL-5 melanoma): > 100 µM
- TGI (SK-OV-3 ovarian): > 100 µM
- TGI (SN12C renal): > 100 µM
- TGI (SNB-19 CNS): > 100 µM
- TGI (SNB-75 CNS): > 100 µM
- TGI (SW-620 colon): > 100 µM
- TGI (T-47D breast): > 100 µM
- TGI (TK-10 renal): > 100 µM
- TGI (U251 CNS): > 100 µM
- TGI (UACC-257 melanoma): > 100 µM
- TGI (UACC-62 melanoma): > 100 µM
- TGI (UO-31 renal): > 100 µM
